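Exposure lasted 48 hours, with cells grown in 96-well plates and compounds tested at five concentrations. TGI is the concentration that stops growth completely.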
Experiments:
Assay in all cases: NCI tumour cell line growth inhibition, 48 h
[1] = tested on: OVCAR-8 ovarian
[2] = tested on: MALME-3M melanoma
[3] = tested on: M14 melanoma
[4] = tested on: NCI-H460 lung
[5] = tested on: KM12 colon
[6] = tested on: NCI-H522 lung
[7] = tested on: HT29 colon
[8] = tested on: OVCAR-5 ovarian
[9] = tested on: HOP-62 NSCLC
[10] = tested on: EKVX NSCLC
[11] = tested on: SR leukemia
[12] = tested on: SK-MEL-5 melanoma
[13] = tested on: CCRF-CEM leukemia
[14] = tested on: KM20L2 colon
[15] = tested on: LXFL 529 NSCLC
[16] = tested on: XF 498 CNS
[17] = tested on: SF-539 CNS
[18] = tested on: SW-620 colon
[19] = tested on: M19-MEL melanoma
[20] = tested on: K-562 leukemia
[21] = tested on: DMS 273 small cell lung
[22] = tested on: SK-MEL-28 melanoma
[23] = tested on: SK-OV-3 ovarian
[24] = tested on: SF-268 CNS
[25] = tested on: SNB-78 CNS
[26] = tested on: UO-31 renal
[27] = tested on: MOLT-4 leukemia
[28] = tested on: 786-0 renal
[29] = tested on: HCT-15 colon
[30] = tested on: UACC-62 melanoma
[31] = tested on: U251 CNS
[32] = tested on: UACC-257 melanoma
[33] = tested on: LOX IMVI melanoma
[34] = tested on: OVCAR-4 ovarian
[35] = tested on: HCT-116 colon
[36] = tested on: A549 NSCLC
[37] = tested on: NCI-H23 lung
[38] = tested on: SN12C renal
[39] = tested on: HOP-92 NSCLC
[40] = tested on: RXF 393 renal
[41] = tested on: HOP-18 NSCLC
[42] = tested on: TK-10 renal
[43] = tested on: DMS 114 small cell lung
[44] = tested on: HL-60(TB) leukemia
[45] = tested on: RPMI-8226 leukemia
[46] = tested on: CAKI-1 renal
[47] = tested on: SNB-19 CNS
[48] = tested on: OVCAR-3 ovarian
[49] = tested on: COLO 205 colon
[50] = tested on: ACHN renal
[51] = tested on: HCC-2998 colon
[52] = tested on: SK-MEL-2 melanoma
[53] = tested on: SNB-75 CNS
[54] = tested on: NCI-H226 lung
[55] = tested on: SF-295 CNS
[56] = tested on: A498 renal
[57] = tested on: DLD-1 colon
[58] = tested on: IGROV1 ovarian
[59] = tested on: RXF-631 renal

COc1cc2c(oc(=O)c3cc4cc([Si](C)(C)C)oc4c(OC)c32)c2cccc(O)c12
TGI [1]: > 100 µM
TGI [2]: > 100 µM
TGI [3]: > 100 µM
TGI [4]: > 100 µM
TGI [5]: > 100 µM
TGI [6]: > 100 µM
TGI [7]: > 100 µM
TGI [8]: > 100 µM
TGI [9]: > 100 µM
TGI [10]: > 100 µM
TGI [11]: > 100 µM
TGI [12]: > 100 µM
TGI [13]: > 100 µM
TGI [14]: > 100 µM
TGI [15]: > 100 µM
TGI [16]: > 100 µM
TGI [17]: > 100 µM
TGI [18]: > 100 µM
TGI [19]: > 100 µM
TGI [20]: > 100 µM
TGI [21]: > 100 µM
TGI [22]: > 100 µM
TGI [23]: > 100 µM
TGI [24]: > 100 µM
TGI [25]: > 100 µM
TGI [26]: > 100 µM
TGI [27]: > 100 µM
TGI [28]: > 100 µM
TGI [29]: > 100 µM
TGI [30]: > 100 µM
TGI [31]: > 100 µM
TGI [32]: > 100 µM
TGI [33]: > 100 µM
TGI [34]: > 100 µM
TGI [35]: > 100 µM
TGI [36]: > 100 µM
TGI [37]: > 100 µM
TGI [38]: > 100 µM
TGI [39]: > 100 µM
TGI [40]: > 100 µM
TGI [41]: > 100 µM
TGI [42]: > 100 µM
TGI [43]: > 100 µM
TGI [44]: > 100 µM
TGI [45]: > 100 µM
TGI [46]: > 100 µM
TGI [47]: > 100 µM
TGI [48]: > 100 µM
TGI [49]: > 100 µM
TGI [50]: > 100 µM
TGI [51]: > 100 µM
TGI [52]: > 100 µM
TGI [53]: > 100 µM
TGI [54]: > 100 µM
TGI [55]: > 100 µM
TGI [56]: > 100 µM
TGI [57]: > 100 µM
TGI [58]: > 100 µM

COc1cc(/C=C(\NC(=O)c2ccccc2)c2nc3ncncc3[nH]2)cc(OC)c1OC
TGI [1]: > 100 µM
TGI [2]: > 100 µM
TGI [3]: > 100 µM
TGI [5]: > 100 µM
TGI [6]: > 100 µM
TGI [7]: > 100 µM
TGI [8]: > 100 µM
TGI [10]: > 100 µM
TGI [11]: > 100 µM
TGI [12]: > 100 µM
TGI [13]: > 100 µM
TGI [59]: > 100 µM
TGI [14]: > 100 µM
TGI [15]: > 100 µM
TGI [16]: > 100 µM
TGI [17]: > 100 µM
TGI [18]: > 100 µM
TGI [19]: > 100 µM
TGI [20]: > 100 µM
TGI [21]: > 100 µM
TGI [22]: > 100 µM
TGI [23]: > 100 µM
TGI [24]: > 100 µM
TGI [25]: > 100 µM
TGI [26]: > 100 µM
TGI [27]: > 100 µM
TGI [28]: > 100 µM
TGI [29]: > 100 µM
TGI [30]: > 100 µM
TGI [31]: > 100 µM
TGI [34]: > 100 µM
TGI [36]: > 100 µM
TGI [37]: > 100 µM
TGI [38]: > 100 µM
TGI [39]: > 100 µM
TGI [40]: > 100 µM
TGI [42]: > 100 µM
TGI [44]: > 100 µM
TGI [46]: > 100 µM
TGI [47]: > 100 µM
TGI [48]: > 100 µM
TGI [49]: > 100 µM
TGI [50]: > 100 µM
TGI [51]: > 100 µM
TGI [52]: > 100 µM
TGI [55]: > 100 µM
TGI [57]: > 100 µM
TGI [58]: > 100 µM

CC1=CP(=O)(c2ccccc2)C=C(C)C1=C(Cl)Cl (stereo unspecified)
TGI [1]: > 100 µM
TGI [3]: 17.9 µM
TGI [4]: 59.1 µM
TGI [5]: 14.9 µM
TGI [6]: 7.23 µM
TGI [7]: 13.1 µM
TGI [9]: 12.5 µM
TGI [12]: 31.2 µM
TGI [13]: 19.2 µM
TGI [14]: 4.61 µM
TGI [15]: 11.3 µM
TGI [16]: 34.8 µM
TGI [17]: 88.6 µM
TGI [18]: 16.6 µM
TGI [19]: 30.3 µM
TGI [20]: 13.6 µM
TGI [21]: 9.22 µM
TGI [22]: 23.4 µM
TGI [23]: 72.3 µM
TGI [24]: 42.4 µM
TGI [25]: 9.03 µM
TGI [27]: 21.6 µM
TGI [28]: 16.5 µM
TGI [30]: 21.7 µM
TGI [31]: 19.8 µM
TGI [33]: 14.9 µM
TGI [34]: 26 µM
TGI [35]: 10.1 µM
TGI [36]: > 100 µM
TGI [37]: 34.9 µM
TGI [38]: 81.8 µM
TGI [40]: 33.5 µM
TGI [41]: 45.2 µM
TGI [42]: 43.3 µM
TGI [43]: 28.9 µM
TGI [44]: 5.61 µM
TGI [45]: 11.5 µM
TGI [47]: 32.8 µM
TGI [48]: 30.9 µM
TGI [49]: 16.4 µM
TGI [51]: 29.8 µM
TGI [53]: > 100 µM
TGI [54]: 9.68 µM
TGI [55]: 34.6 µM
TGI [57]: 27.1 µM
TGI [58]: 34.1 µM

COc1ccc(OC)c(/C=C2\CCc3ccccc3C2=O)c1
TGI [1]: 20.2 µM
TGI [2]: 18.5 µM
TGI [3]: 16.3 µM
TGI [4]: 27.5 µM
TGI [5]: 12.5 µM
TGI [6]: 4.25 µM
TGI [7]: 16.7 µM
TGI [8]: 25.5 µM
TGI [9]: 10.8 µM
TGI [10]: 22.7 µM
TGI [12]: 12.4 µM
TGI [13]: 14.8 µM
TGI [14]: 9.62 µM
TGI [15]: 31.8 µM
TGI [16]: 11 µM
TGI [17]: 9.95 µM
TGI [18]: 15.4 µM
TGI [19]: 23.5 µM
TGI [20]: 10.8 µM
TGI [21]: 12.8 µM
TGI [22]: 28.1 µM
TGI [23]: 18.8 µM
TGI [24]: 22.2 µM
TGI [27]: 19.8 µM
TGI [28]: 13.8 µM
TGI [29]: 29.3 µM
TGI [30]: 5.39 µM
TGI [31]: 14.4 µM
TGI [33]: 20.1 µM
TGI [34]: 22.9 µM
TGI [35]: 20.6 µM
TGI [36]: 65.6 µM
TGI [37]: 17.3 µM
TGI [38]: 25.5 µM
TGI [39]: 9.32 µM
TGI [40]: 6.07 µM
TGI [41]: 57.1 µM
TGI [42]: 30.3 µM
TGI [43]: 5.21 µM
TGI [44]: 5.96 µM
TGI [45]: 19.6 µM
TGI [46]: > 100 µM
TGI [47]: 28.9 µM
TGI [48]: 7.67 µM
TGI [49]: 13.5 µM
TGI [50]: 81.2 µM
TGI [51]: 9.35 µM
TGI [52]: 12.8 µM
TGI [53]: 3.52 µM
TGI [54]: 18.6 µM
TGI [55]: 12.4 µM
TGI [56]: 19.7 µM
TGI [57]: 22.8 µM
TGI [58]: 47.8 µM
